Columns and labels:
[1] = Radioligand stability in mice (radio-HPLC of blood and urine); type: in vivo; conditions: mean ± SD
Description: The formation of radiometabolites which can be detected in the blood was tested in blood samples collected 5 min post-injection (pi) of each of the radioligands [^67Ga]Ga/[^111In]In/[^177Lu]Lu-GAS1/3 and [^67Ga]Ga/[^111In]In-GAS2. For this study, in-house male Swiss albino mice (body weight: 30 ± 5 g, provided by the NCSR “Demokritos” Animal House) were used in groups of three. The animals received, through the tail vein, a 100-μL bolus containing each radioligand tested (2.5–3 nmol of the total conjugate in vehicle: saline/EtOH 9/1 v/v, corresponding to: up to 11 MBq for In-111, up to 13 MBq for Ga-67 and up to 74 MBq for Lu-177). Mice were euthanized, and blood was collected directly from the heart using a prechilled penicillin syringe and transferred in a prechilled EDTA-containing Eppendorf Protein LoBind® tube on ice (40 µL, 50 mM Na2EDTA solution). After centrifugation (10 min, 2000× g/4 °C, in a Hettich, Universal 320R, centrifuge), the blood plasma was collected, mixed with chilled MeCN in a 1/1 v/v ratio and centrifuged again (10 min, 15,000× g/4 °C). Supernatants were collected and concentrated to a small volume (≈50–100 μL) under a gentle N2-flux at 40 °C. They were then diluted with physiological saline (≈400 μL) and filtered through a Millex GV filter (0.22 μm, 13 mm Ø, Millipore, Milford, CT, USA). Aliquots of the filtrate were analyzed by radio-RP-HPLC using a Waters Symmetry Shield RP18 cartridge column (5 μm, 3.9 mm × 20 mm) eluted at a flow rate of 1.0 mL/min with the following gradient: 100% A/0% B to 55% A/45% B in 45 min; A = 0.1% aqueous TFA (v/v) and B = MeCN (system 2). The elution time (tR) of each parent radioligand was determined by coinjection of blood samples with an aliquot of the labeling solution on the HPLC column. Results were calculated as the average percentage of intact radioligand ± SD derived from three independent experiments.
Following the same injection protocol, radioligands were administered in additional groups of mice, but this time animals were euthanized 30 min pi. The urine was immediately collected from the bladder using a prechilled syringe and transferred as before in a prechilled EDTA-containing Eppendorf Protein LoBind® centrifuge tube on ice (40 µL, 50 mM Na2EDTA solution) and 0.1 mL of physiological saline. Urine proteins were precipitated by adding chilled MeCN in a 1/1 v/v ratio followed by a 10 min centrifugation step (15,000× g/4 °C). The supernatant was then collected and treated following the blood sample workup procedure. Aliquots of the Millex-GV filtrate (containing >90% of total urine activity) were analyzed by radio-HPLC, adopting the aforementioned conditions. Results were calculated as the average percentage of intact radioligand ± SD derived from three independent experiments.

[2] = test system: SCID mice bearing twin HEK293-CCK2i4svR and wtHEK293 tumors; assay: Biodistribution in SCID mice bearing twin HEK293-CCK2i4svR and wtHEK293 xenografts; type: in vivo
Description: Inocula containing a suspension of freshly harvested HEK293-CCK2i4svR/wtHEK293 cells (150 μL, 1.8 × 10^7/1.4 × 10^7 cells, respectively, in normal saline) were subcutaneously (sc) injected in the right and left flanks of male SCID mice (24.5 ± 2.3 g body weight, six weeks of age on arrival day, NCSR “Demokritos” Animal House Facility). Well-palpable tumors (0.42 ± 0.37/0.25 ± […], respectively) were grown at the inoculation site 3–4 weeks later, and biodistribution was conducted. On the day of biodistribution, animals were divided into groups of four and received the radioligand through the tail vein as a bolus (100 μL, containing each of: i. 78–91 kBq [^67Ga]GAS1/2/3 corresponding to 7–17 pmol GAS1/2/3; ii. 74–92 kBq [^111In]GAS1/2/3 corresponding to 20–25 pmol GAS1/2/3; iii. 730 kBq [^177Lu]Lu-GAS1/3 corresponding to 40 pmol GAS1/3, in-vehicle: saline/EtOH 9/1 v/v). Animals were euthanized at predetermined time intervals depending upon the radionuclide applied (for [^67Ga]Ga-GAS1/2/3: 1, 4 and 24 h pi; for [^111In]In-GAS1/2/3: 4 and 24 h pi–two extra groups of mice receiving gelofusine together with [^111In]In-GAS1/2 at 4 and 24 h pi were included; and for [^177Lu]Lu-GAS1/3: 4, 24, 48, 72 and 96 h pi). Mice were dissected, and blood samples, organs of interest and tumors were rapidly collected, weighted and counted in the gamma counter. Biodistribution data was calculated as the percentage of the administered dose per gram tissue (%IA/g) with the aid of suitable standards of the administered dose and the Microsoft Excel program. Results are presented as mean % IA/g values ± SD, n = 4 per time point, as determined by the PRISM^TM 6.0 GraphPad software (San Diego, CA, USA).

## CC(C)(C)C(=O)CN1C(=O)[C@H](NC(=O)Nc2cccc(C(=O)NCCOCCOCCOCCNC(=O)[C@H](CCC(=O)O)NC(=O)CN3CCN(CC(=O)[O-])CCN(CC(=O)[O-])CCN(CC(=O)[O-])CC3)c2)CN(C2CCCCC2)c2ccccc21.[177Lu+3] (stereo in doubt) [[^177Lu]Lu-GAS1]
[1]; mice blood collected 5 min pi
  Intact radioligand in blood: 81.1 ± 8.2 (3) %
[1]; mice urine collected 30 min pi
  Intact radioligand in urine: 79.2 ± 10.3 (3) %
[2]; 4 h pi
  Biodistribution, Blood: 0.99 ± 0.20 %IA/g
  Biodistribution, CCK2i4svR(+) Tumor: 8.74 ± 1.60 %IA/g
  Biodistribution, CCK2i4svR(-) Tumor: 1.01 ± 0.30 %IA/g
  Biodistribution, Femur: 0.28 ± 0.03 %IA/g
  Biodistribution, Heart: 0.41 ± 0.07 %IA/g
  Biodistribution, Intestines: 1.65 ± 0.28 %IA/g
  Biodistribution, Kidneys: 3.70 ± 0.62 %IA/g
  Biodistribution, Liver: 2.21 ± 0.44 %IA/g
  Biodistribution, Lungs: 0.94 ± 0.15 %IA/g
  Biodistribution, Muscle: 0.12 ± 0.02 %IA/g
  Biodistribution, Pancreas: 0.56 ± 0.11 %IA/g
  Biodistribution, Spleen: 0.59 ± 0.07 %IA/g
  Biodistribution, Stomach: 0.37 ± 0.05 %IA/g
[2]; 24 h pi
  Biodistribution, Blood: 0.06 ± 0.00 %IA/g
  Biodistribution, CCK2i4svR(+) Tumor: 2.09 ± 0.50 %IA/g
  Biodistribution, CCK2i4svR(-) Tumor: 0.29 ± 0.20 %IA/g
  Biodistribution, Femur: 0.11 ± 0.01 %IA/g
  Biodistribution, Heart: 0.12 ± 0.00 %IA/g
  Biodistribution, Intestines: 0.32 ± 0.07 %IA/g
  Biodistribution, Kidneys: 1.05 ± 0.12 %IA/g
  Biodistribution, Liver: 0.51 ± 0.07 %IA/g
  Biodistribution, Lungs: 0.34 ± 0.03 %IA/g
  Biodistribution, Muscle: 0.04 ± 0.00 %IA/g
  Biodistribution, Pancreas: 0.10 ± 0.01 %IA/g
  Biodistribution, Spleen: 0.32 ± 0.01 %IA/g
  Biodistribution, Stomach: 0.14 ± 0.03 %IA/g
[2]; 48 h pi
  Biodistribution, Blood: 0.04 ± 0.01 %IA/g
  Biodistribution, CCK2i4svR(+) Tumor: 0.97 ± 0.20 %IA/g
  Biodistribution, CCK2i4svR(-) Tumor: 0.17 ± 0.02 %IA/g
  Biodistribution, Femur: 0.09 ± 0.01 %IA/g
  Biodistribution, Heart: 0.07 ± 0.01 %IA/g
  Biodistribution, Intestines: 0.08 ± 0.01 %IA/g
  Biodistribution, Kidneys: 0.38 ± 0.07 %IA/g
  Biodistribution, Liver: 0.32 ± 0.04 %IA/g
  Biodistribution, Lungs: 0.29 ± 0.04 %IA/g
  Biodistribution, Muscle: 0.03 ± 0.00 %IA/g
  Biodistribution, Pancreas: 0.05 ± 0.01 %IA/g
  Biodistribution, Spleen: 0.26 ± 0.06 %IA/g
  Biodistribution, Stomach: 0.08 ± 0.01 %IA/g
[2]; 72 h pi
  Biodistribution, Blood: 0.04 ± 0.00 %IA/g
  Biodistribution, CCK2i4svR(+) Tumor: 0.35 ± 0.23 %IA/g
  Biodistribution, CCK2i4svR(-) Tumor: 0.18 ± 0.05 %IA/g
  Biodistribution, Femur: 0.06 ± 0.00 %IA/g
  Biodistribution, Heart: 0.05 ± 0.01 %IA/g
  Biodistribution, Intestines: 0.06 ± 0.02 %IA/g
  Biodistribution, Kidneys: 0.14 ± 0.04 %IA/g
  Biodistribution, Liver: 0.23 ± 0.02 %IA/g
  Biodistribution, Lungs: 0.21 ± 0.03 %IA/g
  Biodistribution, Muscle: 0.02 ± 0.00 %IA/g
  Biodistribution, Pancreas: 0.03 ± 0.00 %IA/g
  Biodistribution, Spleen: 0.51 ± 0.71 %IA/g
  Biodistribution, Stomach: 0.05 ± 0.01 %IA/g
[2]; 96 h pi
  Biodistribution, Blood: 0.04 ± 0.00 %IA/g
  Biodistribution, CCK2i4svR(+) Tumor: 0.56 ± 0.25 %IA/g
  Biodistribution, CCK2i4svR(-) Tumor: 0.11 ± 0.04 %IA/g
  Biodistribution, Femur: 0.05 ± 0.01 %IA/g
  Biodistribution, Heart: 0.04 ± 0.00 %IA/g
  Biodistribution, Intestines: 0.08 ± 0.05 %IA/g
  Biodistribution, Kidneys: 0.10 ± 0.04 %IA/g
  Biodistribution, Liver: 0.19 ± 0.02 %IA/g
  Biodistribution, Lungs: 0.17 ± 0.02 %IA/g
  Biodistribution, Muscle: 0.02 ± 0.01 %IA/g
  Biodistribution, Pancreas: 0.03 ± 0.01 %IA/g
  Biodistribution, Spleen: 0.14 ± 0.02 %IA/g
  Biodistribution, Stomach: 0.05 ± 0.01 %IA/g
[2]; mouse, in vivo
  Background clearance / excretion route: rapid background clearance predominantly via the kidneys
